In US8617534B2, “Compositions and method for manipulating PIM-1 activity in circulatory system cells” (San Diego State University (SDSU) Foundation, priority 2007, dated 2013):
Entries after “also recorded” stand apart in the source; their conditions may differ.

How the values were obtained:
PIM-1 = PIM-1 expression in cultured cardiomyocytes (immunoblot, confocal microscopy); format: cell-based, rat; conditions: for PIM-1 protein level (immunoblot): 2 hour exposure; for induction of PIM-1 expression / PIM-1 immunoreactivity by confocal microscopy: treatment for 2 hours; for PIM-1 immunoreactivity by confocal microscopy: compared to control cells
Experimental: Neonatal Rat Cardiomyocyte Cultures infections and treatments. Neonatal rat cardiomyocyte cultures were prepared as described previously^12. Cells to be subjected to treatments were placed in media with 2% serum overnight and then treated with the appropriate agent and harvested or fixed after the pre-described timepoint. Cardiomyocytes were infected with adenovirus for two hours, washed in PBS and then re-fed M199 with 2% FBS and 50 μg/ml pen/strep, and 100 μM glutamine.
Immunoblotting. Infected cardiomyocytes were harvested 24 hours after infection in SDS denaturing sample buffer, sonicated and boiled for 10 minutes, and quantitated using the Bradford assay. Mouse whole heart lysates were generated from flash frozen hearts pulverized in a mortar and pestle then resuspended in SDS denaturing sample buffer, sonicated, boiled for 10 minutes and quantitated using Bradford assay. […] Blots were blocked in 3% BSA for 1 hour, and probed with primary antibodies (PIM-1 (Cell Signaling Technology), c-jun (Cell Signaling Technology), HISTONE3™ (Cell Signaling Technology), GFP (Molecular Probes), bcl-2 (Santa Cruz), bcl-XL (Cell Signaling Technology), PHOSPHO-BADS112™ (Biosource) AKT (Cell Signaling Technology), GAPDH (Research Diagnostics Inc.), PHOSPHO-AKTS473™ (Cell Signaling Technology), total PARP (Biosource), cleaved PARP (Biosource), and cleaved caspase3 (Cell Signaling Technologies)) diluted in blocking solution overnight at 4° C. Blots were washed in TBS-0.5% Tween three times and probed with fluorescent or alkaline phosphatase conjugated secondary antibodies diluted 1:5000 in blocking solution for 1 hour at room temperature followed by three washes in TBS-0.5% Tween. […] All quantitation is based on standardization to loading controls.
Immunohistochemistry. Hearts were fixed and embedded and cardiomyocytes fixed and permeabilized as described previously^12. Staining of cultured neonatal rat cardiomyocytes was performed with antibodies described above diluted 1:25 in PBS containing 10% horse serum overnight at 4° C. Slides were washed in PBS and probed with fluorescent conjugated secondary antibodies (1:100) for one hour at room temperature, and Texas Red phalloidin (1:50 Molecular Probes) to identify actin filaments. Slides were washed three times in PBS, and stained for 30 minutes with TOPRO-3™ (1:5000 Molecular Probes) to identify nuclei, washed once and cover-slipped using […]™ (Vectra Labs). Paraffin embedded samples were cut at 4 μm and deparaffinized through a standard series of Xylene and graded Ethanol steps to water. Antigen retrieval was performed in 10 mM Citrate pH6.0. PIM-1 and phospho-AKT signals were amplified using the TYRAMIDE AMPLIFICATION KIT™ (Perkin Elmer) with primary concentrations of 1:500 for both antibodies, and secondaries 1:3000. Slides were washed following the amplification process, and stained with TOPRO-3 (Molecular Probes) to identify nuclei, washed and cover-slipped with […]™ (Vectra Labs). Confocal imaging of stained slides was performed on a Leica LCS confocal microscope. For comparison purposes, all slides were treated identically and scanned using the same settings in each experiment.

[1] = system: neonatal rat cardiomyocytes (NRCMs); assay: Endothelin-1 induced hypertrophy, cell surface area of neonatal rat cardiomyocytes; format: cell-based; conditions: 10 nM for 1 hour prior to 48 hour incubation with ET-1; compared to ET-1 stimulated cells without inhibitor
Experimental: The impact of Pim-wt overexpression upon cardiomyocyte hypertrophy was initially examined using neonatal rat cardiomyocytes (NRCMs) infected with adenoviruses encoding EGFP-Pim-wt or EGFP protein followed by stimulation with endothelin-1 (ET-1) for 24 hours.
Neonatal rat cardiomyocyte cultures were prepared as described previously (10).

protein phosphatase 2A = conditions: cited from earlier work

Row | Molecule | PIM-1 protein level (immunoblot) (PIM-1) | induction of PIM-1 expression (PIM-1) [fold] | PIM-1 immunoreactivity by confocal microscopy (PIM-1) | other results
1 | C=C[C@@]1(C)CC(=O)[C@]2(O)[C@@]3(C)[C@@H](O)CCC(C)(C)[C@@H]3[C@H](O)[C@H](OC(C)=O)[C@@]2(C)O1 [forskolin] | – | – | – | reduction of PIM-1 expression (PIM-1; versus control cultures): 45%
2 | Insulin-like Growth Factor [IGF-1] | significantly increased PIM-1 expression; also recorded: Induction is evident | 2.7 | induced PIM-1 immunoreactivity | –
3 | CCCCCCCCCCCCCC(=O)O[C@@H]1[C@@H](C)[C@@]2(O)[C@@H](C=C(CO)C[C@]3(O)C(=O)C(C)=C[C@@H]23)[C@@H]2C(C)(C)[C@]12OC(C)=O [PMA] | significantly increased PIM-1 expression; also recorded: Induction is evident | 2.3 | induced PIM-1 immunoreactivity | –
4 | COC[C@H]1OC(=O)c2coc3c2[C@@]1(C)C1=C(C3=O)[C@@H]2CCC(=O)[C@@]2(C)C[C@H]1OC(C)=O [wortmannin] | – | – | – | reduction of PIM-1 expression in response to IGF-1 treatment (PIM-1; in the presence of the inhibitor or inactivated AKT): 4.0 fold
5 | CNC[C@H](O)c1cccc(O)c1 [phenylephrine] | did not markedly increase Pim-1 protein expression | – | not induced | PIM-1 protein level (immunoblot) (PIM-1; listed as phenyl-ephedrine): little or no increase
6 | O=c1c(O)c(-c2ccc(O)c(O)c2)oc2cc(O)c(O)c(O)c12 [quercetagetin] | – | – | – | cell surface of Pim-1 expressing NRCM cultures [1]: significantly larger surface
7 | C[C@@H]1C[C@H]2[C@@H]3CCC4=CC(=O)C=C[C@]4(C)[C@@]3(F)[C@@H](O)C[C@]2(C)[C@@]1(O)C(=O)CO [dexamethasone] | – | 2.0 | – | –
8 | C=C1[C@@H](O)[C@@H]2O[C@]3(CC[C@H](/C=C/[C@@H](C)[C@@H]4CC(C)=C[C@@]5(O[C@H](C[C@@](C)(O)C(=O)O)CC[C@H]5O)O4)O3)CC[C@H]2O[C@@H]1[C@@H](O)C[C@H](C)[C@H]1O[C@@]2(CCCCO2)CC[C@H]1C [Okadaic acid] | – | – | – | effect on negative regulation of PIM-1 by protein phosphatase 2A (protein phosphatase 2A): inhibit or block negative regulation of PIM-1 by protein phosphatase 2A
9 | endothelin-1 | little or no increase; also recorded: did not markedly increase Pim-1 protein expression | – | not induced | –
10 | Leukemia Inhibitory Factor [LIF] | significantly increased PIM-1 expression | 2.8 | induced PIM-1 immunoreactivity | –
11 | SV40 small T antigen: viral protein said to block negative regulation of PIM-1 by protein phosphatase 2A (protein, UniProt P03081 1-174, looked up) Small t antigen: MDKVLNREESLQLMDLLGLERSAWGNIPLMRKAYLKKCKEFHPDKGGDEEKMKKMNTLYKKMEDGVKYAHQPDFGGFWDATEVFASSLNPGVDAMYCKQWPECAKKMSANCICLLCLLRMKHENRKLYRKDPLVWVDCYCFDCFRMWFGLDLCEGTLLLWCDIIGQTTYRDLKL | – | – | – | effect on negative regulation of PIM-1 by protein phosphatase 2A (protein phosphatase 2A): inhibit or block negative regulation of PIM-1 by protein phosphatase 2A
